Experimental data reported in ChEMBL document CHEMBL1143748, “'Bridged' stilbene derivatives as selective cyclooxygenase-1 inhibitors” (Bioorg Med Chem, 2007).

What was measured:
Ileum = assay: Relaxing effect on guinea pig terminal ileum ring assessed as reduction of force of contraction at 100 uM; format: functional, Cavia porcellus; design: scale not given: the % may be the effect or the level left
[1] = biological target: T1, Prostaglandin G/H synthase 2 (Homo sapiens, UniProt P35354); assay: Inhibition of human recombinant COX2 by measuring PGE2
T1 sequence (P35354 whole entry): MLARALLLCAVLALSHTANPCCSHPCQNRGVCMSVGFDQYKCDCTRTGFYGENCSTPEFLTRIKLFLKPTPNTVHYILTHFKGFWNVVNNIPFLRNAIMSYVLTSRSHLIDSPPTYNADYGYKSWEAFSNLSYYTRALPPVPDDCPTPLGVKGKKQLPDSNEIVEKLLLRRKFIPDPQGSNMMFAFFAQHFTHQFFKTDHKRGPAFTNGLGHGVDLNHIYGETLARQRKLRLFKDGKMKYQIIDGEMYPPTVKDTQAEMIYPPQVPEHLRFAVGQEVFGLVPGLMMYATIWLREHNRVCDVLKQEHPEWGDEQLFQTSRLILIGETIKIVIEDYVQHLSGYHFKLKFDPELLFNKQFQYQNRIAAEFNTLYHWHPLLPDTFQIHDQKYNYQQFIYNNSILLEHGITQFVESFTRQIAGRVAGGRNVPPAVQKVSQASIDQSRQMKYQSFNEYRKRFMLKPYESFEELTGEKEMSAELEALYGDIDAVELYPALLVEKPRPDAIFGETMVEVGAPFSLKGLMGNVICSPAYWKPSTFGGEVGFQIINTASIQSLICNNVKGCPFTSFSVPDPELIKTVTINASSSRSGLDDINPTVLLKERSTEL

Aorta = assay: Relaxing effect on guinea pig aorta ring assessed as reduction of force of contraction at 100 uM; format: functional, Cavia porcellus; design: scale not given: the % may be the effect or the level left
[2] = Relaxing effect on guinea pig arteria pulmonalis ring assessed as reduction of force of contraction at 100 uM; format: functional, Cavia porcellus; design: scale not given: the % may be the effect or the level left
[3] = Selectivity for ovine COX1 over human recombinant COX2
[4] = biological target: T2, Prostaglandin G/H synthase 1 (Ovis aries, UniProt P05979); assay: Inhibition of ovine COX1 by measuring PGE2
T2 sequence (P05979 whole entry): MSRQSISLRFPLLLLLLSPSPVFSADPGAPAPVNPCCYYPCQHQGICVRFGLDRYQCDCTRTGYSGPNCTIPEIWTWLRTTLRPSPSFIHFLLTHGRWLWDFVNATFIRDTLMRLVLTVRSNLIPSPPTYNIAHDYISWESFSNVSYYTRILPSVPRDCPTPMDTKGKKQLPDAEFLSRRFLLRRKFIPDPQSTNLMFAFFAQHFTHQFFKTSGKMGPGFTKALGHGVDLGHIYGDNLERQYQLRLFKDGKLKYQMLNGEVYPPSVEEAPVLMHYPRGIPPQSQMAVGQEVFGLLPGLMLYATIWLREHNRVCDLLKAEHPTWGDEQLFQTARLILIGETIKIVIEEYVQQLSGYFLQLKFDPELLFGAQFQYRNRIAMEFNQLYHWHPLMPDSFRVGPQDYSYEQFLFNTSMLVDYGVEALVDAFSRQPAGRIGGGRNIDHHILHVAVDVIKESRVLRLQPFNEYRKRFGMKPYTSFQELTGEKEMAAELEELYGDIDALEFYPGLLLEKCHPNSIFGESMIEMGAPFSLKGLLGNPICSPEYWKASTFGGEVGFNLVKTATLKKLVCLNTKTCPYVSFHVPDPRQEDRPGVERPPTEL

Structure (SMILES) | IC50 [1] [nM] | Ratio IC50 [3] | IC50 [4] [nM] | Activity (Ileum) [%] | Activity (Aorta) [%] | Activity [2] [%]
COc1ccc2c(c1)CCC(c1ccc(OC)c(OC)c1OC)=C2 | > 100000 | > 6670 | 15 |  |  | 
COc1ccc2c(c1)CCC(c1ccc(OC)c(OC)c1)=C2 | 30 | 0.079 | 380 |  |  | 
Oc1ccc(/C=C/c2cc(O)cc(O)c2)cc1 [RESVERATROL] |  |  | 535 | -64.77 | -55.15 | -53.56
COc1ccc(C2=Cc3ccccc3CC2)cc1OC | > 100000 | > 1.63 | 61100 | -45.34 | -15.97 | -41.45
C1=C(c2ccc3c(c2)OCO3)CCc2ccccc21 | > 100000 |  | > 100000 |  |  | 

More lines, main results first:

IC50 [1] [nM] | Ratio IC50 [3] | IC50 [4] [nM] | Structure (SMILES) | Activity (Ileum) [%] | Activity (Aorta) [%] | Activity [2] [%]
1330 | 44.3 | 30 | COc1ccc(C2=Cc3ccccc3C2)c(OC)c1OC | -35.94 | -3.45 | -11.92
> 100000 | > 7.8 | 12800 | C1=C(c2ccc3c(c2)OCO3)Cc2ccccc21 | -51.74 | -28.08 | -19.82
660 | 1.38 | 480 | COc1ccc(C2=Cc3ccccc3CC2)c(OC)c1OC |  |  | 
62300 | 135 | 460 | COc1ccccc1C1=Cc2ccccc2C1 | -40.89 | -35.72 | -26.08
